# Tested on: Sertoli cells
# Experiment: Inhibition of in vitro Sertoli cell ablation with BC by cell death pathway inhibitors
# Assay type: cell-based, mouse
# Conditions: 30 min inhibitor pre-treatment, 10 min BC, culture with inhibitor 4 days, neonatal testis
# Experimental: Fragments of the mouse testis were incubated with 0.02% BC for 10 min. After washing several times with PBS, tissues were placed atop 1.5% agarose blocks (214530; Difco), prepared and placed in 6 well tissue culture plates (353046; Falcon) with ˜500 μl of 10% FBS+DMEM (11995-065; Gibco) to reach halfway up the side of the block. After culture, tissues were washed in PBS and fixed for immunofluorescence. The dog testis tissues were incubated with 0.02% or 0.03% BC for 10 min and cultured with 10% KnockOut Serum Replacement (KSR) (Invitrogen; 10828-028)+DMEM (Yokonishi, T., et al. Methods in Molecular Biology 927: 479-488 (2013)). The culture incubator was supplied with 5% (vol/vol) carbon dioxide in air and maintained at 37° C. Q-VD (OMe)-OPh (A8165; ApexBio), Necrostatin-1, Spautin-1 (Sigma; SML0440), 3-Methyladenine (Cayman; CAS 5142-23-4), LY294002 (Cayman; CAS 154447-36-6), Bafilomycin A1 (Cayman; CAS88899-55-2) were used as cell death inhibitors. Next, we investigated the Sertoli cell death pathway caused by BC treatment. Testes from neonatal pups were pre-treated with 1% DMSO (as a control) or with cell death pathway inhibitors, pan-caspase inhibitor, 2,6-difluorophenoxymethylketone-based inhibitor (Q-VD-OPH), necrosis inhibitor (Necrostatin-1) and autophagy inhibitors, Spautin-1, LY294002, or Bafilomycin A1, for 30 min. Pre-treatments were followed by a 10 min BC treatment, washing, and culture in the presence of the inhibitor for 4 days (FIG. 3).
row,Compound,rescue of Sertoli cells after BC treatment
1,"Cn1cnc(N)c2ncnc1-2 [3MA, 3-Methyladenine]",partially rescued Sertoli cells
2,CO/C1=C\C(C)=C\[C@@H](C)[C@@H](O)[C@@H](C)C/C(C)=C/C=C/[C@H](OC)[C@@H]([C@@H](C)[C@@H](O)[C@H](C)[C@@]2(O)C[C@@H](O)[C@H](C)[C@@H](C(C)C)O2)OC1=O [Bafilomycin A1],partially rescued Sertoli cells
3,CN1C(=O)C(Cc2c[nH]c3ccccc23)NC1=S (centres unmarked) [Necrostatin-1],did not rescue Sertoli cells
4,COC(=O)C[C@H](NC(=O)[C@@H](NC(=O)c1ccc2ccccc2n1)C(C)C)C(=O)COc1c(F)cccc1F [Q-VD-OPH],did not rescue Sertoli cells
5,Fc1ccc(CNc2ncnc3ccc(F)cc23)cc1 [Spautin-1],partially rescued Sertoli cells
